Row | Structure (SMILES) | melting point [°C]
1 | O=C(O)CN1C(=O)C(=Cc2ccc(CO)o2)SC1=S | 206 to 209
2 | COc1ccc(N(CCCC(=O)O)C(=O)C(C)N(C(=O)c2cccc(C(F)(F)F)c2)c2ccc(OC)cc2)cc1 (stereo unspecified) | 119 to 121
3 | Cc1nn(-c2ccc(F)cc2)cc1C(=O)Nc1ccc(OCC(C)(C)C)c(Br)c1 | 193 to 194
4 | CN(C)c1ccc(C2CCCN2S(=O)(=O)c2ccc(Cl)cc2)cc1Cl (racemic) | 103
5 | COc1ccnc(CCc2nc3cc(-c4ccc(S(=O)(=O)N5CCN(Cc6ccccc6)CC5)cc4)cnc3[nH]2)c1 | 160 to 162
6 | OC1CSC(Oc2cccc(-c3cncnc3)c2)C(O)C1O (stereo unspecified) | 241
7 | C[C@]12C[C@H](c3ccc(OCCCCCS(=O)CCCC(F)(F)C(F)(F)F)cc3)[C@@H]3c4ccc(OC5CCCC5)cc4CC[C@H]3[C@@H]1CC[C@@H]2O (stereo partly specified) | 189
8 | CCCN(C(=O)CCl)[C@@H]1CCc2cc3c(cc2[C@H]1O)OCC3 (relative stereo) | 65 to 70
9 | Nc1nc(Cl)c2ccccc2n1 | 275 to 278
10 | COc1ccc(S(=O)(=O)N(CCNC(C)=O)c2ccc(C)cc2Cc2c(F)cccc2F)cc1OC | 79.7
11 | O=C(O)C(Cc1ccccc1)NC(=O)N1CCc2cc(S(=O)(=O)N3CCN(c4cccc(Cl)c4)CC3)ccc21 (stereo unspecified) | 134 to 135
12 | CCC(C)c1cccc(C(C)CC)c1C(=O)O (stereo unspecified) | 125 to 126
13 | NC(=O)c1sc2ncnc(-c3cccc(NC(=O)Nc4ccccc4C(F)(F)F)c3)c2c1N | 172 to 175
14 | Cc1cc(Oc2ccc(S(=O)(=O)c3ccc(Cl)cc3)cc2)ccc1N | 200
15 | NC(=O)c1c(C(=O)O)cnn1-c1ccc(Cl)c(Cl)c1 | 249 to 250
16 | O=C(c1ccc(Cc2ccc(F)cc2)o1)c1oc(CO)cc(=O)c1OCc1ccccc1 | 104 to 106
17 | Oc1nn(-c2ccccc2)c2ccccc12 | 209 to 211
18 | CC(=O)c1ccc(N(C(C)=O)c2ccccc2)cc1 | 118 to 120
19 | COc1cccc(C(=O)N2CCN(CC3(C)Cc4c(C)c(N)c(C)c(C)c4O3)CC2)c1 (stereo unspecified) | 95 to 98
20 | CCOC(=O)c1cnc2c(cnn2-c2ccccc2)c1Cl | 89 to 91
21 | Cc1oc(-c2ccccc2)nc1CCOc1ccc(COc2ccccc2CC(=O)O)cn1 | 159 to 160
22 | On1c(C(F)(F)F)nc2ncc(Cl)cc21 | 264 to 266

Row | Structure (SMILES) | melting point [°C]
23 | COc1ccc(OC)c2c1CC(C(=O)O)CC2=O (stereo unspecified) | 199 to 201
24 | N#Cc1cnc(-c2ccncc2)nc1N | 253 to 255
25 | CCCCn1c(=O)c(NC(=O)Nc2cc(Cc3cc[nH]n3)ccc2C(C)(C)C)c(-c2cccc(OCCCO)c2)c2cccnc21 | 116 to 119
26 | CC(C)n1nc(-c2nc(Br)c(N)nc2-c2ccccc2)ccc1=O | 204 to 206
27 | CC1(C)CC(C)(C)CC(O)(C#Cc2ccccn2)C1 | 126 to 127
28 | N#CCN1CCc2ccc3c(c21)CCO3 | 122 to 124
29 | Cc1cc2c3c(ccc2cc1C#N)OC(=O)C3(C)C | 215 to 217
30 | CN1C(=O)C(C(=O)Nc2ccc(Oc3ccc(C(F)(F)F)cn3)cc2)C(=O)N(C)C1=S | 156 to 158
31 | COc1ccc(C(O)c2ccc(C(=O)N(C3CCCC3)C3CCCC3)cc2)cc1OC (stereo unspecified) | 137 to 138
32 | O=C(CCc1ccccc1)Nc1cc(-c2nnc(CCc3cccc(F)c3)o2)ccn1 | 171 to 172
33 | CC(C)N(CCNc1ccc([N+](=O)[O-])c2ccccc12)C(C)C | 63 to 64
34 | CCc1cnc(SC(C)(C)C)c(C#N)c1 | 63 to 66
35 | CCSc1nc(NC(C)=O)ccc1[N+](=O)[O-] | 168
36 | O=C1CSc2ccc(S(=O)(=O)Cc3c(Cl)cccc3Cl)cc2N1 | 244 to 246
37 | COC(=O)C1=C(C)NC(c2csc(C)n2)=NC1c1ccc(F)cc1Cl (stereo unspecified) | 128 to 130
38 | Cc1nc2cccc(OCC(C)(C)NC(=O)C3CCOCC3)c2c(N)c1C(=O)O | 170 to 173
39 | OCCCN1CCC(C(O)(c2ccc(F)cc2)c2ccc(F)cc2)CC1 | 155 to 157
40 | COC(=O)C1=C(O)C(=O)O[C@@H]1C | 94 to 96
41 | CC(C)(N)Cc1c[nH]c2ccc(Br)cc12 | 150 to 155
42 | Nc1cccc2c1CN(c1c(F)cc3c(=O)c(C(=O)O)cn(-c4ccc(F)cc4F)c3c1F)C2 | 264 to 266
43 | CC(CNC12CC3CC(CC(C3)C1)C2)N1CCN(c2ccccn2)CC1 (stereo unspecified) | 67 to 68
44 | O=C(O)COc1ccc(SCc2ccc(OCc3ccc(C(F)(F)F)cc3)cc2)c2c1CCCO2 | 143 to 144

More lines, now with the values ahead:

Row | melting point [°C] | Structure (SMILES)
45 | 122 to 124 | S=c1sscc1-c1ccccc1
46 | 224 to 226 | Fc1ccc2nc(S)sc2c1
47 | 103 | COc1ccc(S(=O)(=O)c2c(C(C)C)cn3cccc(C)c23)cc1
48 | 175 to 179 | CC1(C)Nc2ccccc2-n2cnc(-c3nc(C4CC4)no3)c21
49 | 144 | OC1(Cn2cncn2)C(=Cc2ccc(Cl)cc2)CCCC1C1CCCCC1 (stereo unspecified)
50 | 152 to 153 | Cn1ccnc1-c1ccccc1N
51 | 103 to 104 | COCCOCCCOc1ccc(/C=C/C(=O)O)c(Oc2ncc(C(F)(F)F)cc2Cl)c1
52 | 57.5 to 58.5 | CCCC(=O)COS(=O)(=O)c1c(C)cc(C)cc1C
53 | 149 to 150 | COc1cc(Nc2c(C#N)cnc3cc(-c4ccc(CN5CCC(O)CC5)cc4)sc23)c(Cl)cc1Cl
54 | 62 to 66 | Cc1ccc2nc(OCC(=O)NCCCN(C)Cc3ccc(Cl)c(Cl)c3)oc2c1
55 | 184 to 186 | Cc1nc(C)c(-c2ccnc(Nc3cccc(S(=O)(=O)NCCO)c3)n2)s1
56 | 126 to 128 | Cc1ccc(S(=O)C(C(=O)OC(C)(C)C)C(O)c2ccc(Oc3ccccc3)cc2)cc1 (stereo unspecified)
57 | 51 | CCCCCC(=O)C=Cc1ccc(CC(=O)O)s1
58 | 164 to 166 | Nc1cccc(CCC(=O)Nc2ccc(Nc3ccccc3)cc2)c1
59 | 203 to 205 | COc1ccccc1CC(=O)c1c(O)c2cccnc2n(-c2ccccc2)c1=O
60 | 120 | COc1ccccc1C(c1ccccc1)c1cccc(-c2ccccc2)c1O (stereo unspecified)
61 | 125 to 126 | COc1cc(OCCCCc2cn(-c3ccc(C(F)(F)F)cn3)nc2C(C)C)ccc1CCC(=O)O
62 | 290 to 291 | CS(=O)(=O)NC(c1ccc(Cl)c2nc3n(c12)CCCN3c1c(Cl)cc(Cl)cc1Cl)C(F)(F)F (stereo unspecified)
63 | 34 to 39 | FC(F)(F)Sc1ccc(-c2ccc(Cl)cc2)[nH]1

Row | melting point [°C] | Structure (SMILES)
64 | 113 to 117 | CS(=O)(=O)NCCCCCCCCCCCCn1c2c(c3ccccc3c1=O)C(=O)c1ccccc1-2
65 | 190 to 192 | CC(C)(N)CNc1ccc(C2=NNC(=O)CC2)cc1
66 | 162 to 164 | S=C(Nc1ccccc1)Nc1ncccc1OCc1ccc(Cl)cc1
67 | 85 to 87 | CCCCCCCCCCCCCC(=O)NCCOCCn1c(CCOC)nc2c(N)nc3ccccc3c21
68 | 191 | Cc1cc(-c2ccc(C(F)(F)F)cc2)cc(-c2cccc(-c3cccc(NS(=O)(=O)N4CCOCC4)c3)n2)n1
69 | 132 to 137 | CCOC(=O)c1c(C2CC2)nc(CC)n1Cc1ccc2oc(-c3ccccc3-c3nnn[nH]3)c(Br)c2c1
70 | 163 to 165 | CNc1nc(Cl)nc2c1ncn2C1CC(O)C(CO)O1 (stereo unspecified)
71 | 122 to 123 | O=[N+]([O-])c1cc(Br)nc(Br)c1
72 | 215 to 220 | O=C(O)c1cc2cc(-c3ccsc3)ccc2o1
73 | 165 | COc1cc(N)c([N+](=O)[O-])cc1NCCO
74 | 175 to 180 | Cn1c(-c2ccc(C(N)=O)cc2)cc2c(N3CCCC3)nc(N3CCCC3)nc21
75 | 35 to 38 | COc1cc(CN)nc(SC)n1
76 | 90 to 93 | COc1ccc2c(c1)C(=O)NCC2
77 | 75 to 77 | CCN1c2cscc2C(=O)N(CCN(C)C)c2ccccc21
78 | 119 to 123 | O=c1c2ccccc2ccc2cc(F)ccc12
79 | 86 to 89 | Nc1nc(F)cc(OC(F)(F)F)n1
80 | 236 to 237 | Nc1ccc2ccccc2c1-c1c(O)ccc2ccccc12
81 | 110 to 113 | O=C(O)c1cc(OCCCOc2ccccc2-c2ccccc2)cc(OCCCOc2ccccc2-c2ccccc2)c1
82 | 172 to 173 | CC1(C)COc2ccc(C(=O)O)cc2OC1

Row | melting point [°C] | Structure (SMILES)
83 | 241 to 242 | Cn1c(=O)c(-c2ccc(Cl)cc2Cl)cc2c3cc(-c4ccno4)ccc3n(C)c21
84 | 202 to 204 | Nc1cc(F)cc2cc(C(=O)NCC(F)(F)C(F)(F)C(F)(F)F)cnc12
85 | 138 to 139 | COC(=O)C=Cc1ccc(OCCc2nc(-c3ccccc3)oc2C)nc1
86 | 215 to 216 | O=C(O)[C@H](Cc1ccccc1)Nc1c(NCc2ccccc2)c(=O)c1=O
87 | 75 to 77 | COC(=O)c1ccc(C#CCc2ccc3c(c2)C(C)(C)CCC3(C)C)cc1O
88 | 100 to 102 | CCCCCCC(O)CCCCCCCCCCC(=O)NCCCC (stereo unspecified)
89 | 61.5 to 62.5 | O=C(CCCCCCCCCCCCC(=O)ON1C(=O)CCC1=O)OCc1ccccc1
90 | 74 | CCc1ncnc2ccc(CCc3cc(OC)ccc3OC)cc12
91 | > 300 | COc1ccc(-c2[nH]nc3c2C(=O)c2c(NC(=O)Nc4ccccc4)cccc2-3)cc1
92 | 94 to 97 | CCCCCCN(C)c1ccc(C=C2SC(=S)N(CC(=O)NS(=O)(=O)C(F)(F)F)C2=O)cc1
93 | 53 to 55.5 | COC(=O)c1ccc(OCCN)cc1
94 | 163 to 165 | O=C(O)Cc1ccc(Sc2ccc(O)cc2)cc1
95 | > 300 | N#Cc1cccc(-c2ccc3c(Cl)c[nH]c(=O)c3c2)c1
96 | 182 to 188 | COC(=O)C1Cc2c(ncn2Cc2ccc(N)c(C)c2)CN1C(=O)C(c1ccccc1)c1ccccc1 (stereo unspecified)
97 | 146 to 147 | Cc1[nH]c2ccc(F)cc2c1CCCN1CCN(c2ccccc2)CC1
98 | 59 to 60 | CC12CCC1C(=O)OC2=O (stereo unspecified)
99 | 200 | O=C(O)c1coc(Cn2cc(C3c4ccccc4C=Cc4ccccc43)c(=S)[nH]c2=O)n1
100 | 42 to 45 | CCCOc1nc2ccsc2c(=O)n1CCC
101 | 120 to 123 | C[C@@H](O)[C@H](CN)C(=O)O
